Experimental data from PubChem BioAssay AID282 (DTP/NCI, 2004).
Where “and” joins values, the source holds several entries; their conditions need not be identical. Equal values may be shown once. Toxic doses and inconclusive results are not listed.

System: BDF1 mice, L1210 terephthalanilide-resistant leukemia ip, survival T/C
Experiment: NCI In Vivo Anticancer Drug Screen. Data for tumor model L1210 Leukemia resistant to A Terephthalanilide; NSC 38280 (intraperitoneal) in B6D2F1 (BDF1) mice
Settings: endpoint: mean survival time, higher = longer survival
Protocol: The antitumor activity of compounds was measured in mice bearing transplantable tumors. Survival or tumor size were measured and the results are expressed as the measurement made in the treated group (T) divided by the measurement made in the vehicle treated control group (C). The tumor model used in this assay is L1210 Leukemia resistant to A Terephthalanilide; NSC 38280 (intraperitoneal) in B6D2F1 (BDF1) mice

[1] = dose: 37.5 mg/kg/injection, schedule: Q01DX Z (ip), vehicle: carboxymethylcellulose (CMC)
[2] = dose: 62.5 mg/kg/injection, schedule: Q01DX010 (ip), vehicle: saline
[3] = dose: 125.0 mg/kg/injection, schedule: Q01DX010 (ip), vehicle: saline
[4] = dose: 250.0 mg/kg/injection, schedule: Q01DX010 (ip), vehicle: saline
[5] = dose: 87.5 mg/kg/injection, schedule: Q01DX Z (ip), vehicle: other
[6] = dose: 0.5 mg/kg/injection, schedule: Q01DX Z (ip), vehicle: carboxymethylcellulose (CMC)
[7] = dose: 2.0 mg/kg/injection, schedule: Q01DX Z (ip), vehicle: carboxymethylcellulose (CMC)

Structure (SMILES): O=C(Nc1ccc(C2=NCCN2)cc1)c1ccc(C(=O)Nc2ccc(C3=NCCN3)cc2)cc1
- T/C (dose: 4.0 mg/kg/injection, schedule: Q01DX010 (ip), vehicle: other): 112 % of control and 115 % of control
- T/C (dose: 8.0 mg/kg/injection, schedule: Q01DX010 (ip), vehicle: other): 123 % of control and 114 % of control
- T/C (dose: 16.0 mg/kg/injection, schedule: Q01DX010 (ip), vehicle: other): 112 % of control and 117 % of control
- T/C (dose: 32.0 mg/kg/injection, schedule: Q01DX010 (ip), vehicle: other): 114 % of control and 117 % of control
- T/C (dose: 64.0 mg/kg/injection, schedule: Q01DX010 (ip), vehicle: other): 103 % of control and 110 % of control

Structure (SMILES): Clc1ncnc2nc[nH]c12
- T/C (dose: 7.5 mg/kg/injection, schedule: Q01DX010 (ip), vehicle: saline): 94 % of control and 102 % of control
- T/C (dose: 15.0 mg/kg/injection, schedule: Q01DX010 (ip), vehicle: saline): 96 % of control and 105 % of control
- T/C (dose: 30.0 mg/kg/injection, schedule: Q01DX010 (ip), vehicle: saline): 120 % of control and 105 % of control
- T/C [1]: 115 % of control
- T/C (dose: 60.0 mg/kg/injection, schedule: Q01DX010 (ip), vehicle: saline): 123 % of control and 110 % of control
- T/C (dose: 75.0 mg/kg/injection, schedule: Q01DX Z (ip), vehicle: carboxymethylcellulose (CMC)): 114 % of control
- T/C (dose: 150.0 mg/kg/injection, schedule: Q01DX Z (ip), vehicle: carboxymethylcellulose (CMC)): 150 % of control

Structure (SMILES): C[C@@H]1C[C@H]2CC[C@H](O2)[C@H](C)C(=O)O[C@@H](C)C[C@@H]2CC[C@@H](O2)[C@@H](C)C(=O)O[C@H](C)C[C@H]2CC[C@H](O2)[C@H](C)C(=O)O[C@@H](C)C[C@@H]2CC[C@@H](O2)[C@@H](C)C(=O)O1
- T/C (dose: 45.0 mg/kg/injection, schedule: Q01DX Z (ip), vehicle: carboxymethylcellulose (CMC)): 92 % of control
- T/C (dose: 90.0 mg/kg/injection, schedule: Q01DX Z (ip), vehicle: carboxymethylcellulose (CMC)): 95 % of control
- T/C (dose: 180.0 mg/kg/injection, schedule: Q01DX Z (ip), vehicle: carboxymethylcellulose (CMC)): 104 % of control
- T/C (dose: 360.0 mg/kg/injection, schedule: Q01DX Z (ip), vehicle: carboxymethylcellulose (CMC)): 108 % of control

Structure (SMILES): c1ccc(CCSc2ncnc3nc[nH]c23)cc1
- T/C [2]: 90 % of control
- T/C [3]: 104 % of control
- T/C [4]: 99 % of control

Structure (SMILES): CN(C)c1nc(N(C)C)nc(N(C)C)n1
- T/C (dose: 18.8 mg/kg/injection, schedule: Q01DX010 (ip), vehicle: saline): 94 % of control and 95 % of control
- T/C (dose: 37.5 mg/kg/injection, schedule: Q01DX010 (ip), vehicle: saline): 94 % of control and 100 % of control
- T/C (dose: 75.0 mg/kg/injection, schedule: Q01DX010 (ip), vehicle: saline): 94 % of control and 99 % of control
- T/C [5]: 110 % of control
- T/C (dose: 150.0 mg/kg/injection, schedule: Q01DX010 (ip), vehicle: saline): 96 % of control and 99 % of control
- T/C (dose: 175.0 mg/kg/injection, schedule: Q01DX Z (ip), vehicle: other): 119 % of control

Structure (SMILES): CCCSc1ncnc2nc[nH]c12
- T/C (dose: 31.3 mg/kg/injection, schedule: Q01DX010 (ip), vehicle: saline): 95 % of control and 99 % of control
- T/C (dose: 44.0 mg/kg/injection, schedule: Q01DX Z (ip), vehicle: other): 96 % of control
- T/C [2]: 106 % of control and 111 % of control
- T/C [5]: 121 % of control
- T/C [3]: 100 % of control and 111 % of control

Structure (SMILES): Cc1cc(N(CCCl)CCCl)ccc1N=Nc1ccccc1C(=O)O
- T/C [6]: 105 % of control
- T/C (dose: 1.0 mg/kg/injection, schedule: Q01DX Z (ip), vehicle: carboxymethylcellulose (CMC)): 102 % of control
- T/C [7]: 115 % of control
- T/C (dose: 5.0 mg/kg/injection, schedule: Q01DX010 (ip), vehicle: saline): 108 % of control and 113 % of control
- T/C (dose: 6.25 mg/kg/injection, schedule: Q01DX Z (ip), vehicle: carboxymethylcellulose (CMC)): 111 % of control
- T/C (dose: 10.0 mg/kg/injection, schedule: Q01DX010 (ip), vehicle: saline): 116 % of control and 120 % of control
- T/C (dose: 20.0 mg/kg/injection, schedule: Q01DX010 (ip), vehicle: saline): 118 % of control and 119 % of control
- T/C (dose: 25.0 mg/kg/injection, schedule: Q01DX Z (ip), vehicle: carboxymethylcellulose (CMC)): 115 % of control
- T/C [1]: 112 % of control
- T/C (dose: 50.0 mg/kg/injection, schedule: Q01DX Z (ip), vehicle: carboxymethylcellulose (CMC)): 100 % of control

Structure (SMILES): COS(C)(=O)=O
- T/C (dose: 12.5 mg/kg/injection, schedule: Q01DX010 (ip), vehicle: saline): 93 % of control
- T/C (dose: 25.0 mg/kg/injection, schedule: Q01DX010 (ip), vehicle: saline): 101 % of control
- T/C (dose: 25.0 mg/kg/injection, schedule: Q01DX Z (ip), vehicle: saline): 95 % of control
- T/C (dose: 50.0 mg/kg/injection, schedule: Q01DX010 (ip), vehicle: saline): 102 % of control
- T/C (dose: 50.0 mg/kg/injection, schedule: Q01DX Z (ip), vehicle: saline): 101 % of control
- T/C (dose: 75.0 mg/kg/injection, schedule: Q01DX Z (ip), vehicle: saline): 106 % of control
- T/C (dose: 100.0 mg/kg/injection, schedule: Q01DX010 (ip), vehicle: saline): 100 % of control
- T/C (dose: 100.0 mg/kg/injection, schedule: Q01DX Z (ip), vehicle: saline): 106 % of control

Structure (SMILES): Nc1nc(SCc2ccccc2)c2[nH]cnc2n1
- T/C (dose: 8.0 mg/kg/injection, schedule: Q01DX010 (ip), vehicle: saline): 92 % of control and 104 % of control
- T/C (dose: 16.0 mg/kg/injection, schedule: Q01DX010 (ip), vehicle: saline): 104 % of control
- T/C (dose: 32.0 mg/kg/injection, schedule: Q01DX010 (ip), vehicle: saline): 115 % of control
- T/C (dose: 62.5 mg/kg/injection, schedule: Q01DX Z (ip), vehicle: carboxymethylcellulose (CMC)): 111 % of control
- T/C (dose: 64.0 mg/kg/injection, schedule: Q01DX010 (ip), vehicle: saline): 95 % of control and 114 % of control
- T/C (dose: 125.0 mg/kg/injection, schedule: Q01DX Z (ip), vehicle: carboxymethylcellulose (CMC)): 107 % of control

Structure (SMILES): CC(=O)N(C)C
- T/C [2]: 94 % of control and 105 % of control
- T/C [3]: 92 % of control and 97 % of control
- T/C (dose: 125.0 mg/kg/injection, schedule: Q01DX Z (ip), vehicle: saline): 108 % of control
- T/C [4]: 90 % of control and 96 % of control
- T/C (dose: 250.0 mg/kg/injection, schedule: Q01DX Z (ip), vehicle: saline): 112 % of control
- T/C (dose: 500.0 mg/kg/injection, schedule: Q01DX010 (ip), vehicle: saline): 96 % of control and 105 % of control
- T/C (dose: 500.0 mg/kg/injection, schedule: Q01DX Z (ip), vehicle: saline): 110 % of control
- T/C (dose: 750.0 mg/kg/injection, schedule: Q01DX Z (ip), vehicle: saline): 114 % of control

Structure (SMILES): Cn1cnc([N+](=O)[O-])c1Sc1nc(N)nc2nc[nH]c12
- T/C [6]: 117 % of control
- T/C [7]: 191 % of control
- T/C (dose: 3.75 mg/kg/injection, schedule: Q01DX Z (ip), vehicle: carboxymethylcellulose (CMC)): 170 % of control
- T/C (dose: 10.0 mg/kg/injection, schedule: Q01DX Z (ip), vehicle: carboxymethylcellulose (CMC)): 120 % of control

Structure (SMILES): CN(C)CC(=O)c1ccc(O)c(O)c1
- T/C (dose: 134.0 mg/kg/injection, schedule: Q01DX010 (ip), vehicle: saline): 104 % of control
- T/C (dose: 135.0 mg/kg/injection, schedule: Q01DX010 (ip), vehicle: saline): 114 % of control
- T/C (dose: 200.0 mg/kg/injection, schedule: Q01DX010 (ip), vehicle: saline): 104 % of control and 105 % of control
- T/C (dose: 300.0 mg/kg/injection, schedule: Q01DX010 (ip), vehicle: saline): 120 % of control and 97 % of control
- T/C (dose: 450.0 mg/kg/injection, schedule: Q01DX010 (ip), vehicle: saline): 121 % of control and 110 % of control

Structure (SMILES): CC(=O)O[C@]1(C(C)=O)CC[C@H]2[C@@H]3C[C@H](C)C4=CC(=O)C=C[C@]4(C)[C@@]3(F)[C@@H](O)C[C@@]21C
- T/C (dose: 12.5 mg/kg/injection, schedule: Q01DX010 (sc), vehicle: steriod suspending solution): 102 % of control
- T/C (dose: 25.0 mg/kg/injection, schedule: Q01DX010 (sc), vehicle: steriod suspending solution): 98 % of control
- T/C (dose: 50.0 mg/kg/injection, schedule: Q01DX010 (sc), vehicle: steriod suspending solution): 98 % of control
- T/C (dose: 50.0 mg/kg/injection, schedule: Q01DX Z (sc), vehicle: steriod suspending solution): 102 % of control
- T/C (dose: 75.0 mg/kg/injection, schedule: Q01DX Z (sc), vehicle: steriod suspending solution): 104 % of control
- T/C (dose: 100.0 mg/kg/injection, schedule: Q01DX010 (sc), vehicle: steriod suspending solution): 91 % of control
- T/C (dose: 100.0 mg/kg/injection, schedule: Q01DX Z (sc), vehicle: steriod suspending solution): 102 % of control
- T/C (dose: 150.0 mg/kg/injection, schedule: Q01DX Z (sc), vehicle: steriod suspending solution): 102 % of control

Structure (SMILES): Nc1nc(F)nc2c1ncn2C1OC(CO)C(O)C1O (stereo not drawn)
- T/C (dose: 0.75 mg/kg/injection, schedule: Q01DX Z (ip), vehicle: saline): 111 % of control
- T/C (dose: 1.5 mg/kg/injection, schedule: Q01DX Z (ip), vehicle: saline): 108 % of control
- T/C (dose: 3.0 mg/kg/injection, schedule: Q01DX Z (ip), vehicle: saline): 114 % of control
- T/C (dose: 6.0 mg/kg/injection, schedule: Q01DX Z (ip), vehicle: saline): 101 % of control
